Test results reported in US20240285497A1, “METHOD FOR EVALUATING AN ABILITY OF A TEST SAMPLE TO TRIGGER A FOREIGN BODY REACTION IN THE SKIN, A METHOD FOR SCREENING A SUBSTANCE HAVING AN ABILITY TO INHIBIT A FOREIGN BODY REACTION IN THE SKIN, AND AN AGENT FOR INHIBITING A FOREIGN BODY REACTION IN THE SKIN” (priority 2021, published 2024).

How the values were obtained:
artemin mRNA = assay: Inhibition of FICZ-induced artemin mRNA expression in HaCaT cells, quantitative PCR; assay type: cell-based, human
Protocol: First, HaCaT cells (CLI; Catalogue No.: 300493) were suspended in a DMEM medium at the density of 1×10^5 cell/mL, and 100 μL of the thus obtained suspension was added to each well of white 96-well plates (Thermo Fisher Scientific, MA, U.S.A.; Catalogue No.: 136102) so that the number of the cells in each well was 10,000 cells/well. In accordance with the conventional method, the cells were incubated for 24 hours at 37° C. and 5% CO2. Thereafter, the DMEM medium was removed, and 100 μL of a new DMEM medium containing both FICZ at predetermined concentration (500 nM or 5,000 nM) and Fraglide-1 at a predetermined concentration (0 nM or 250 nM). After incubation for 24 hours at 37° C. and 5% CO2, the total RNA was extracted, cDNA was prepared, and quantitative PCR was carrier out using the obtained cDNA in the same manner as described in Experiment 2. In FIG. 7, the results obtained for each sample were shown as a relative value, with the expression level of artemin mRNA in HaCaT cells incubated 24 hours in DMEM medium containing neither FICZ nor Fraglide-1 set to 1.
As described above, Fraglide-1 inhibited production of artemin induced by FICZ. Then, the following experiment was conducted in order to quantitatively evaluated the effect of inhibiting artemin production exerted by Fraglide-1. Briefly, HaCaT cells were treated with FICZ and Fraglide-1 in the same manner as in Experiment 3-1 except that the concentration of FICZ was set to 5,000 nM and the concentration of Fraglide-1 was set to 0 μM, 0.01 μM, 0.1 μM, 1 μM, 10 μM, and 100 µM, and then the total RNA was extracted, cDNA was prepared, and quantitative PCR was carried out. Based on the obtained result, the inhibition rate (Inhibition (%)) of the artemin mRNA expression triggered by FICZ when a given concentration of Fraglide-1 was added to the cell culture medium together with 5,000 nM of FICZ was calculated in accordance with the following formula. […]

[1] = system: matrix metalloprotease 9 (MMP9) mRNA; assay: MMP9 mRNA expression in HaCaT cells contacted with test substance, quantitative PCR; assay type: cell-based, human; conditions: HaCaT cells, 24 hours
Protocol: In this experiment, the effect of Fraglide-1 on the expression of MMP9 in the level of mRNA was examined first. Specifically, HaCaT cells were treated with Fraglide-1 in the same manner as described in Experiment 3-1 except that HaCaT cells were incubated for 24 hours in the medium containing 0 μM, 1 μM, 10 μM, and 100 μM of Fraglide-1 instead of being incubated for 24 hours in the medium containing both FICZ and Fraglide-1. The total RNA was then extracted, cDNA was prepared, and the quantitative PCR was performed using the obtained cDNA. Herein, the procedure of the quantitative PCR was the same as described in Experiment 3-1 except that the primers shown in below Table 4 were used. In this experiment, the expression of MMP2 mRNA was also quantified in addition to MMP9 mRNA. MMP2 is known as a MMP which is not transcriptionally regulated by a xenobiotic responsive element (XRE).
(§1) In FIG. 9 and FIG. 10, the results obtained for each sample were shown as a relative value, with the mRNA expression level of MMP9 or MMP2 in the HaCaT cells incubated for 24 hours in DMEM medium without FICZ (i.e., the non-treated HaCaT cells) set to 1. The results shown in FIG. 9 and FIG. 10 were the mean obtained from three independent experiments. The error bars represent the standard deviation (SD).
Next, experiments were performed to inhibit MMP9 and MMP2 in HaCaT cells using retinoic acid (CAS RN: 302-79-4) and nicotinamide (CAS RN: 98-92-0), which are known to be substances having anti-wrinkle effect. Briefly, HaCaT cells were made in contact with retinoic acid and nicotinamide in the same manner as in Experiment 4-1 except that retinoic acid and nicotinamide were used instead of Fraglide-1. Then, the total RNA was extracted, cDNA was prepared, and the quantitative PCR was carried out using the obtained cDNA.
as §1, with “FIG. 12” for “FIG. 9”, “FIG. 13,” for “FIG. 10,”, “medium containing neither retinoic acid nor nicotinamide” for “medium without FICZ”, “FIG. 13” for “FIG. 10”

O=C1C=C(c2ccccc2)C(O)O1 (stereo not drawn) [Fraglide-1, 5-hydroxy-4-phenyl-2(5H)butenolide]
Inhibition (%) of artemin mRNA expression triggered by FICZ (artemin mRNA; 100 nM (0.1 μM) Fraglide-1, 5,000 nM FICZ): approximately 50%
expression level of artemin mRNA compared to cells without FICZ (artemin mRNA; 250 μM Fraglide-1 plus 500 nM or 5,000 nM FICZ, 24 hours): no increase in the expression level of artemin mRNA was observed
inhibition of FICZ-induced expression of artemin, dependence on concentration (artemin mRNA; Fraglide-1 0.01-100 μM, 5,000 nM FICZ): in the concentration dependent manner
decrease of expression level of MMP9 mRNA compared to medium without Fraglide-1 ([1]; 1 μM): approximately 42%
decrease of expression level of MMP9 mRNA compared to medium without Fraglide-1 ([1]; 10 μM): ~52%
decrease of expression level of MMP9 mRNA compared to medium without Fraglide-1 ([1]; 100 μM): ~80%
